Patent US12329158B2, “Large-scale methods of uniformly coating packaging surfaces with a volatile antimicrobial to preserve food freshness” (AGROFRESH INC., priority 2013, dated 2025)
Values after ≈ are worked out from the molar mass of the structure shown.

Key:
Type in all cases: cell-based
Botrytis cinerea [1] = experiment: Volatile MIC assay (Example 10); settings: 72 h, volatile treatment, 3 days at 23 C, read-out: MIC (mg/L) BOTRCI
Description: (§1) 12-Well (6.5 mL volume per well) microtiter plates are used for the in vitro inhibition assay for volatile antimicrobial compounds. A 3-mL volume of full-strength Potato Dextrose Agar (PDA) is added to each well. After cooling, 1 μL of 1×10^5 per mL Botrytis cinerea and Penicillium expansum spore suspension is spot-pipetted to the center of the agar. Plates are inoculated immediately prior to volatile fungicide treatment. A Whatman #1 filter disk (Cat. No. 1001-0155) is placed, in duplicate, on the underside of a polyethylene PCR plate sealing film. […] The headspace around the inoculum is then sealed inside the well by the film with the adhering disk containing the fungicide by inverting the plates over the treated disks and sealing to prevent any of the chemical from flaking from the disk and falling onto the inoculated agar. After 3 days of storage at 23° C., the cultures are evaluated for percent growth relative to control based on measurement of fungal colony diameter.

Penicillium expansum [2] = experiment: Volatile MIC assay (Example 10); settings: 72 h, volatile treatment, 3 days at 23 C, read-out: MIC (mg/L) PENIEX
Description: as §1

Alternaria alternata = experiment: Volatile MIC assay (Example 9); settings: 72 h, headspace concentration, 3 days at 23 C, read-out: MIC (mg/L) ALTEAL
Description: (§2) A 3-mL volume of full-strength Potato Dextrose Agar (PDA) is added to each well. […] Plates are inoculated immediately prior to volatile fungicide treatment. A Whatman #1 filter disk (Cat. No. 1001-0155) is placed, in duplicate, on the underside of a polyethylene PCR plate sealing film. […] The acetone is permitted to evaporate for 5 minutes. The headspace around the inoculum is then sealed inside the well by the film with the adhering disk containing the fungicide by inverting the plates over the treated disks and sealing to prevent any of the chemical from flaking from the disk and falling onto the inoculated agar.

Botrytis cinerea [3] = experiment: Volatile MIC assay (Example 9); settings: 72 h, headspace concentration, 3 days at 23 C, read-out: MIC (mg/L) BOTRCI
Description: as §2

Monilinia fructicola = experiment: Volatile MIC assay (Example 9); settings: 72 h, headspace concentration, 3 days at 23 C, read-out: MIC (mg/L) MONIFC
Description: as §2

Penicillium expansum [4] = experiment: Volatile MIC assay (Example 9); settings: 72 h, headspace concentration, 3 days at 23 C, read-out: MIC (mg/L) PENIEX
Description: as §2

B. cinerea = experiment: In vitro contact assay, amended agar (Example 24); settings: Botrytis cinerea, 72 h; amended agar; 100% control; 3 days at 23 C; read-out: Contact MIC (mg/L) B. cinerea
Description: (§3) Contact assay: 6-well (16.5 mL volume per well) microtiter plates are used for an in vitro inhibition assay. […] A 7.5-mL volume of the amended media is added to each well of the microtiter plate. […] The plates are sealed with a clear film and incubated for 3 days at 23° C. After incubation, plates are evaluate for percent growth relative to acetone only control.

P. expansum = experiment: In vitro contact assay, amended agar (Example 24); settings: Penicillium expansum, 72 h; amended agar; 100% control; 3 days at 23 C; read-out: Contact MIC (mg/L) P. expansum
Description: as §3

Botrytis cinerea [5] = experiment: In vitro volatile assay (Example 24); settings: 72 h, headspace, 100% control, 3 days at 23 C, read-out: Volatile MIC (mg/L) B. cinerea
Description: (§4) Volatile assay: 12-well (6.5 mL volume per well) microtiter plates are used. A 3-mL volume of half strength PDA is added to each well. […] A Whatman #1 filter disk (Cat. No. 1001-0155) is placed, in duplicate, on the underside of a polyethylene PCR plate sealing film. […] The acetone is permitted to evaporate for 5 minutes. The headspace around the inoculum is then sealed inside the well by the film with the adhering disk containing the fungicide. Plates are inverted, placed over the treated disks, and sealed to prevent any of the chemical from flaking from the disk and falling onto the inoculated agar. […] Contact assay: 6-well (16.5 mL volume per well) microtiter plates are used for an in vitro inhibition assay. […] A 7.5-mL volume of the amended media is added to each well of the microtiter plate. […] The plates are sealed with a clear film and incubated for 3 days at 23° C. After incubation, plates are evaluate for percent growth relative to acetone only control.

Penicillium expansum [6] = experiment: In vitro volatile assay (Example 24); settings: 72 h, headspace, 100% control, 3 days at 23 C, read-out: Volatile MIC (mg/L) P. expansum
Description: as §4

[7] = tested on: Trichophyton mentagrophytes; experiment: In vitro contact assay (Example 26); settings: Trichophyton mentagrophytes, 120 h, 5 days at 28 C, 100% control, read-out: MIC (mg/L) Trichophyton mentagrophytes
Description: (§5) Half-strength Potato Dextrose Agar (PDA) is amended with a mixture of one of the test compounds in acetone or methanol to a final concentration of 50, 10, 2, 0.4 or 0.08 mg/L. A 3-mL volume of the amended media is added to each well of the microtiter plate. […] The plates are sealed with a clear film and incubated inverted for 5 days at 28° C.

Trichophyton rubrum [8] = experiment: In vitro contact assay (Example 26); settings: Trichophyton rubrum, 120 h, 5 days at 28 C, 100% control, read-out: MIC (mg/L) Trichophyton rubrum
Description: as §5

[9] = tested on: Trichophyton mentagrophytes; experiment: In vitro volatile assay (Example 26); settings: Trichophyton mentagrophytes, 120 h, 5 days at 28 C, 100% control, read-out: MIC (mg/L) Trichophyton mentagrophytes
Description: (§6) Volatile assay: 6-well (16.5 mL volume per well) microtiter plates are used in an in vitro inhibition assay for Compounds A and 31, and compared to other registered fungicides (5-fluorocytosine, Amphotericin B, aspofungin diacetate, Fluconazole and Itraconazole). A 7.5-mL volume of half strength PDA is added to each well. After drying, a mycelial plug (5 mm diameter) is aseptically obtained from actively growing cultures of Epidermophyton floccus, Trichophyton rubrum, or Trichophyton mentagrophytes and placed at the center of the plate with the mycelial side in contact with the agar. A Whatman #1 filter disk (Cat. No. 1001-325) is placed, in duplicate, on the underside of a polyethylene PCR plate sealing film. […] The headspace around the inoculum is then sealed inside the well by the film with the adhering disk containing the fungicide and incubated inverted for 5 days at 28° C.

Trichophyton rubrum [10] = experiment: In vitro volatile assay (Example 26); settings: Trichophyton rubrum, 120 h, 5 days at 28 C, 100% control, read-out: MIC (mg/L) Trichophyton rubrum
Description: as §6

## NCCOB1OCc2ccccc21 [Compound 21]
Botrytis cinerea [1]
  MIC: 1.1 mg/L (≈ 6.21 µM)
Penicillium expansum [2]
  MIC: 35.7 mg/L (≈ 202 µM)

## CN(C)CCOB1OCc2ccccc21 [Compound 22]
Botrytis cinerea [1]
  MIC: 4.5 mg/L (≈ 21.9 µM)
Penicillium expansum [2]
  MIC: 35.7 mg/L (≈ 174 µM)

## CCCCOB1OCc2cc(F)ccc21 [Compound 30]
Alternaria alternata
  MIC: 2.2 mg/L (≈ 10.6 µM)
Botrytis cinerea [3]
  MIC: 2.2 mg/L (≈ 10.6 µM)
Monilinia fructicola
  MIC: 2.2 mg/L (≈ 10.6 µM)
Penicillium expansum [4]
  MIC: 8.9 mg/L (≈ 42.8 µM)

## CC(COB1OCc2cc(F)ccc21)OB1OCc2cc(F)ccc21 (stereo not shown) [Compound 31]
B. cinerea
  MIC: 0.4 mg/L (≈ 1.16 µM)
P. expansum
  MIC: 2 mg/L (≈ 5.82 µM)
Botrytis cinerea [5]
  MIC: 0.6 mg/L (≈ 1.74 µM)
Penicillium expansum [6]
  MIC: 8.9 mg/L (≈ 25.9 µM)
[7]
  MIC: 2 mg/L (≈ 5.82 µM)
Trichophyton rubrum [8]
  MIC: 10 mg/L (≈ 29.1 µM)
[9]
  MIC: 2 mg/L (≈ 5.82 µM)
Trichophyton rubrum [10]
  MIC: 2 mg/L (≈ 5.82 µM)

## NCCOB1OCc2cc(F)ccc21 [Compound 34]
Alternaria alternata
  MIC: 2.2 mg/L (≈ 11.3 µM)
Botrytis cinerea [3]
  MIC: < 0.6 mg/L
Penicillium expansum [4]
  MIC: 2.2 mg/L (≈ 11.3 µM)
B. cinerea
  MIC: 2 mg/L (≈ 10.3 µM)
P. expansum
  MIC: 0.4 mg/L (≈ 2.05 µM)
Botrytis cinerea [5]
  MIC: 0.6 mg/L (≈ 3.08 µM)
Penicillium expansum [6]
  MIC: 2.2 mg/L (≈ 11.3 µM)

## COCCOB1OCc2cc(F)ccc21 [Compound 38]
Botrytis cinerea [1]
  MIC: 0.6 mg/L (≈ 2.86 µM)
Penicillium expansum [2]
  MIC: 8.9 mg/L (≈ 42.4 µM)

## COCCCOB1OCc2cc(F)ccc21 [Compound 39]
Botrytis cinerea [1]
  MIC: 0.6 mg/L (≈ 2.68 µM)
Penicillium expansum [2]
  MIC: 8.9 mg/L (≈ 39.7 µM)

## OCCOCCOCCOB1OCc2cc(F)ccc21 [Compound 55]
Botrytis cinerea [1]
  MIC: 4.5 mg/L (≈ 15.8 µM)
Penicillium expansum [2]
  MIC: > 35.7 mg/L

## OCCOCCOB1OCc2cc(F)ccc21 [Compound 62]
Botrytis cinerea [1]
  MIC: 2.2 mg/L (≈ 9.17 µM)
Penicillium expansum [2]
  MIC: 8.9 mg/L (≈ 37.1 µM)

## CN(C)CCCOB1OCc2cc(F)ccc21 [Compound 63]
Botrytis cinerea [1]
  MIC: 1.1 mg/L (≈ 4.64 µM)
Penicillium expansum [2]
  MIC: 17.9 mg/L (≈ 75.5 µM)

## NCCCOB1OCc2cc(F)ccc21 [Compound 64]
Botrytis cinerea [1]
  MIC: 1.1 mg/L (≈ 5.26 µM)
Penicillium expansum [2]
  MIC: 8.9 mg/L (≈ 42.6 µM)

## CN(CCO)CCOB1OCc2cc(F)ccc21 [Compound 72]
Botrytis cinerea [1]
  MIC: 35.7 mg/L (≈ 141 µM)
Penicillium expansum [2]
  MIC: > 35.7 mg/L

## OCCNCCOB1OCc2cc(F)ccc21 [Compound 73]
Botrytis cinerea [1]
  MIC: 35.7 mg/L (≈ 149 µM)
Penicillium expansum [2]
  MIC: > 35.7 mg/L

## CN(C)CCOB1OCc2cc(F)ccc21 [Compound 74]
Botrytis cinerea [1]
  MIC: 2.2 mg/L (≈ 9.86 µM)
Penicillium expansum [2]
  MIC: 35.7 mg/L (≈ 160 µM)

## OCCCCCCOB1OCc2cc(F)ccc21 [Compound 86]
Botrytis cinerea [1]
  MIC: 0.6 mg/L (≈ 2.38 µM)
Penicillium expansum [2]
  MIC: 8.9 mg/L (≈ 35.3 µM)

## CNCCOB1OCc2cc(F)ccc21 [Compound 87]
Botrytis cinerea [1]
  MIC: 0.6 mg/L (≈ 2.87 µM)
Penicillium expansum [2]
  MIC: 8.9 mg/L (≈ 42.6 µM)

## OB1OC(N2CCOCC2)c2ccccc21 (stereo not shown) [Compound 114]
Botrytis cinerea [1]
  MIC: 17.9 mg/L (≈ 81.7 µM)
Penicillium expansum [2]
  MIC: > 35.7 mg/L

## CC(C)(N)COB1OCc2cc(F)ccc21 [Compound 115]
Botrytis cinerea [1]
  MIC: 0.6 mg/L (≈ 2.69 µM)
Penicillium expansum [2]
  MIC: 8.9 mg/L (≈ 39.9 µM)
